{"source": "patent US11267825B2", "about": "(AICURIS GMBH & CO. KG, priority 2017, dated 2022)", "tested_on": "HBV", "assay": "Determination of HBV DNA from the supernatants of HepAD38 cells (anti-HBV activity)", "assay_type": "cell-based, hepatitis B virus", "conditions": "Hepatitis B virus, 144 h; HBV DNA in HepAD38 supernatant at day 6; read-out: Cell Activity (EC50)", "method": "Determination of HBV DNA from the Supernatants of HepAD38 Cells\nThe anti-HBV activity was analysed in the stable transfected cell line HepAD38, which has been described to secrete high levels of HBV virion particles (Ladner et al., 1997). In brief, HepAD38 cells were cultured at 37° C. at 5% CO2 and 95% humidity in 200 μl maintenance medium, which was Dulbecco's modified Eagle's medium/Nutrient Mixture F-12 (Gibco, Karlsruhe), 10% fetal bovine serum (PAN Biotech Aidenbach) supplemented with 50 μg/ml penicillin/streptomycin (Gibco, Karlsruhe), 2 mM L-glutamine (PAN Biotech, Aidenbach), 400 μg/ml G418 (AppliChem, Darmstadt) and 0.3 μg/ml tetracycline. Cells were subcultured once a week in a 1:5 ratio, but were usually not passaged more than ten times. For the assay 60,000 cells were seeded in maintenance medium without any tetracycline into each well of a 96-well plate and treated with serial half-log dilutions of test compound. To minimize edge effects the outer 36 wells of the plate were not used but were filled with assay medium. On each assay plate six wells for the virus control (untreated HepAD38 cells) and six wells for the cell control (HepAD38 cells treated with 0.3 μg/ml tetracycline) were allocated, respectively. In addition, one plate set with reference inhibitors like BAY 41-4109, entecavir, and lamivudine instead of screening compounds were prepared in each experiment. In general, experiments were performed thrice in triplicates. At day 6 HBV DNA from 100 μl filtrated cell culture supernatant (AcroPrep Advance 96 Filter Plate, […] Supor membran, PALL GmbH, Dreieich) was automatically purified on the MagNa Pure LC instrument using the MagNA Pure 96 DNA and Viral NA Small Volume Kit (Roche Diagnostics, Mannheim) according to the instructions of the manufacturer. EC50 values were calculated from relative copy numbers of HBV DNA. In brief, 5 μl of the 100 μl eluate containing HBV DNA were subjected to PCR LC480 Probes Master Kit (Roche) together with 1 μM antisense primer […], 0.5 μM sense primer […], 0.3 μM hybprobes […]-FL and LC640-[…]-PH (TIBMolBiol, Berlin) to a final volume of 12.5 μl. The PCR was performed on the Light Cycler 480 real time system (Roche Diagnostics, Mannheim) using the following protocol: Pre-incubation for 1 min at 95° C., amplification: 40 cycles×(10 sec at 95° C., 50 sec at 60° C., 1 sec at 70° C.), cooling for 10 sec at 40° C. Viral load was quantitated against known standards using HBV plasmid DNA of pCH-9/3091 (Nassal et al., 1990, Cell 63: 1357-1363) and the LightCycler 480 SW 1.5 software (Roche Diagnostics, Mannheim) and EC50 values were calculated using non-linear regression with GraphPad Prism 6 (GraphPad Software Inc., La Jolla, USA)."}
{"compound": "CC1(C(=O)Nc2nc3c(s2)CN(C(=O)c2cc4c(Cl)cccc4[nH]2)CC3)CC1", "note": "[Example 308, N-[5-(4-chloro-1H-indole-2-carbonyl)-4H,5H,6H,7H-[1,3]thiazolo[5,4-c]pyridin-2-yl]-1-methylcyclopropane-1-carboxamide]", "values": [{"measurement": "EC50", "result": "< 1000", "unit": "nM"}]}
{"compound": "O=C(c1cc2c(Cl)cc(F)cc2[nH]1)N1CCc2nc(N[C@H]3CC[C@@H](O)CC3)sc2C1", "note": "[Example 343, (1s,4s)-4-{[5-(4-chloro-6-fluoro-1H-indole-2-carbonyl)-4H,5H,6H,7H-[1,3]thiazolo[5,4-c]pyridin-2-yl]amino}cyclohexan-1-ol]", "values": [{"measurement": "EC50", "result": "< 1000", "unit": "nM"}]}
{"compound": "O=C(c1cc2ccccc2[nH]1)N1CCc2nc(N[C@H]3CCC[C@@H](O)C3)sc2C1", "note": "[Example 350, (1R,3S)-3-{[5-(1H-indole-2-carbonyl)-4H,5H,6H,7H-[1,3]thiazolo[5,4-c]pyridin-2-yl]amino}cyclohexan-1-ol]", "values": [{"measurement": "EC50", "result": "< 1000", "unit": "nM"}]}
{"compound": "O=C(c1cc2ccccc2[nH]1)N1CCc2nc(NC(=O)C3(F)CC3)sc2C1", "note": "[Example 337, 1-fluoro-N-[5-(1H-indole-2-carbonyl)-4H,5H,6H,7H-[1,3]thiazolo[5,4-c]pyridin-2-yl]cyclopropane-1-carboxamide]", "values": [{"measurement": "EC50", "result": "< 1000", "unit": "nM"}]}
{"compound": "O=C(c1cc2ccccc2[nH]1)N1CCc2nc(NCC3(O)CC(F)(F)C3)sc2C1", "note": "[Example 440, 3,3-difluoro-1-({[5-(1H-indole-2-carbonyl)-4H,5H,6H,7H-[1,3]thiazolo[5,4-c]pyridin-2-yl]amino}methyl)cyclobutan-1-ol]", "values": [{"measurement": "EC50", "result": "< 1000", "unit": "nM"}]}
{"compound": "Cc1c(F)ccc2[nH]c(C(=O)N3CCc4nc(N)sc4C3)cc12", "note": "[Example 437, 5-(5-fluoro-4-methyl-1H-indole-2-carbonyl)-4H,5H,6H,7H-[1,3]thiazolo[5,4-c]pyridin-2-amine]", "values": [{"measurement": "EC50", "result": "< 1000", "unit": "nM"}]}
{"compound": "O=C(c1cc2ccccc2[nH]1)N1CCc2nc(N[C@@H]3CCCC[C@@H]3O)sc2C1", "note": "[Example 348, (1S,2R)-2-{[5-(1H-indole-2-carbonyl)-4H,5H,6H,7H-[1,3]thiazolo[5,4-c]pyridin-2-yl]amino}cyclohexan-1-ol]", "values": [{"measurement": "EC50", "result": "< 1000", "unit": "nM"}]}
{"compound": "COCC1(Nc2nc3c(s2)CN(C(=O)c2cc4ccccc4[nH]2)CC3)CCC1", "note": "[Example 347, 5-(1H-indole-2-carbonyl)-N-[1-(methoxymethyl)cyclobutyl]-4H,5H,6H,7H-[1,3]thiazolo[5,4-c]pyridin-2-amine]", "values": [{"measurement": "EC50", "result": "< 1000", "unit": "nM"}]}
{"compound": "CN1CC(C(=O)Nc2nc3c(s2)CN(C(=O)c2cc4ccccc4[nH]2)CC3)C1", "note": "[Example 383, N-[5-(1H-indole-2-carbonyl)-4H,5H,6H,7H-[1,3]thiazolo[5,4-c]pyridin-2-yl]-1-methylazetidine-3-carboxamide]", "values": [{"measurement": "EC50", "result": "1000 to 10000", "unit": "nM"}]}
{"compound": "CC1(C(=O)Nc2nc3c(s2)CN(C(=O)c2cc4cc(F)c(Cl)cc4[nH]2)CC3)CC1", "note": "[Example 304, N-[5-(6-chloro-5-fluoro-1H-indole-2-carbonyl)-4H,5H,6H,7H-[1,3]thiazolo[5,4-c]pyridin-2-yl]-1-methylcyclopropane-1-carboxamide]", "values": [{"measurement": "EC50", "result": "< 1000", "unit": "nM"}]}
{"compound": "O=C(c1cc2ccccc2[nH]1)N1CCc2nc(NC34CC(C3)C4)sc2C1", "note": "[Example 431, N-{bicyclo[1.1.1]pentan-1-yl}-5-(1H-indole-2-carbonyl)-4H,5H,6H,7H-[1,3]thiazolo[5,4-c]pyridin-2-amine]", "values": [{"measurement": "EC50", "result": "< 1000", "unit": "nM"}]}
{"compound": "CC(=O)N1CC(C(=O)Nc2nc3c(s2)CN(C(=O)c2cc4ccccc4[nH]2)CC3)C1", "note": "[Example 382, 1-acetyl-N-[5-(1H-indole-2-carbonyl)-4H,5H,6H,7H-[1,3]thiazolo[5,4-c]pyridin-2-yl]azetidine-3-carboxamide]", "values": [{"measurement": "EC50", "result": "< 1000", "unit": "nM"}]}
{"compound": "O=C(c1cc2cc(F)c(Cl)cc2[nH]1)N1CCc2nc(NCC3(O)CCC3)sc2C1", "note": "[Example 373, 1-({[5-(6-chloro-5-fluoro-1H-indole-2-carbonyl)-4H,5H,6H,7H-[1,3]thiazolo[5,4-c]pyridin-2-yl]amino}methyl)cyclobutan-1-ol]", "values": [{"measurement": "EC50", "result": "< 1000", "unit": "nM"}]}
{"compound": "CC(C)c1cccc2[nH]c(C(=O)N3CCc4nc(NCC5(O)CCC5)sc4C3)cc12", "note": "[Example 368, 1-[({5-[4-(propan-2-yl)-1H-indole-2-carbonyl]-4H,5H,6H,7H-[1,3]thiazolo[5,4-c]pyridin-2-yl}amino)methyl]cyclobutan-1-ol]", "values": [{"measurement": "EC50", "result": "< 1000", "unit": "nM"}]}
{"compound": "CCc1cc(F)cc2[nH]c(C(=O)N3CCc4nc(NC(=O)C5(C)CC5)sc4C3)cc12", "note": "[Example 306, N-[5-(4-ethyl-6-fluoro-1H-indole-2-carbonyl)-4H,5H,6H,7H-[1,3]thiazolo[5,4-c]pyridin-2-yl]-1-methylcyclopropane-1-carboxamide]", "values": [{"measurement": "EC50", "result": "< 1000", "unit": "nM"}]}
{"compound": "CCc1c(F)ccc2[nH]c(C(=O)N3CCc4nc(NCC5CCOC5)sc4C3)cc12", "note": "(stereo not drawn) [Example 256, 5-(4-ethyl-5-fluoro-1H-indole-2-carbonyl)-N-[(oxolan-3-yl)methyl]-4H,5H,6H,7H-[1,3]thiazolo[5,4-c]pyridin-2-amine]", "values": [{"measurement": "EC50", "result": "< 100000", "unit": "nM"}]}
{"compound": "CCOC(=O)C1(CNc2nc3c(s2)CN(C(=O)c2cc4ccccc4[nH]2)CC3)CC1", "note": "[Example 317, Ethyl 1-({[5-(1H-indole-2-carbonyl)-4H,5H,6H,7H-[1,3]thiazolo[5,4-c]pyridin-2-yl]amino}methyl)cyclopropane-1-carboxylate]", "values": [{"measurement": "EC50", "result": "1000 to 10000", "unit": "nM"}]}
{"compound": "CC(O)c1ccc(F)c2[nH]c(C(=O)N3CCc4nc(NCC5CCOC5)sc4C3)cc12", "note": "(stereo not drawn) [Example 257, 1-[7-fluoro-2-(2-{[(oxolan-3-yl)methyl]amino}-4H,5H,6H,7H-[1,3]thiazolo[5,4-c]pyridine-5-carbonyl)-1H-indol-4-yl]ethan-1-ol]", "values": [{"measurement": "EC50", "result": "< 100000", "unit": "nM"}]}
{"compound": "O=C(c1cc2c(C(F)(F)F)cccc2[nH]1)N1CCc2nc(NCC3(O)CCC3)sc2C1", "note": "[Example 374, 1-[({5-[4-(trifluoromethyl)-1H-indole-2-carbonyl]-4H,5H,6H,7H-[1,3]thiazolo[5,4-c]pyridin-2-yl}amino)methyl]cyclobutan-1-ol]", "values": [{"measurement": "EC50", "result": "< 1000", "unit": "nM"}]}
{"compound": "N#CC12CC(Nc3nc4c(s3)CN(C(=O)c3cc5ccccc5[nH]3)CC4)(C1)C2", "note": "[Example 435, 3-{[5-(1H-indole-2-carbonyl)-4H,5H,6H,7H-[1,3]thiazolo[5,4-c]pyridin-2-yl]amino}bicyclo[1.1.1]pentane-1-carbonitrile]", "values": [{"measurement": "EC50", "result": "< 1000", "unit": "nM"}]}
{"compound": "Cc1cc(F)cc2[nH]c(C(=O)N3CCc4nc(NC(=O)C5(C)CC5)sc4C3)cc12", "note": "[Example 307, N-[5-(6-fluoro-4-methyl-1H-indole-2-carbonyl)-4H,5H,6H,7H-[1,3]thiazolo[5,4-c]pyridin-2-yl]-1-methylcyclopropane-1-carboxamide]", "values": [{"measurement": "EC50", "result": "< 1000", "unit": "nM"}]}
{"compound": "CC1(C(=O)Nc2nc3c(s2)CN(C(=O)c2cc4c(Cl)cc(F)cc4[nH]2)CC3)CC1", "note": "[Example 305, N-[5-(4-chloro-6-fluoro-1H-indole-2-carbonyl)-4H,5H,6H,7H-[1,3]thiazolo[5,4-c]pyridin-2-yl]-1-methylcyclopropane-1-carboxamide]", "values": [{"measurement": "EC50", "result": "< 1000", "unit": "nM"}]}
{"compound": "O=C(c1cc2ccccc2[nH]1)N1CCc2nc(NCC3(C(=O)O)CC3)sc2C1", "note": "[Example 345, 1-({[5-(1H-indole-2-carbonyl)-4H,5H,6H,7H-[1,3]thiazolo[5,4-c]pyridin-2-yl]amino}methyl)cyclopropane-1-carboxylic acid]", "values": [{"measurement": "EC50", "result": "1000 to 10000", "unit": "nM"}]}
{"compound": "O=C(CC1CCOC1)Nc1nc2c(s1)CN(C(=O)c1cc3ccccc3[nH]1)CC2", "note": "(stereo not drawn) [Example 351, N-[5-(1H-indole-2-carbonyl)-4H,5H,6H,7H-[1,3]thiazolo[5,4-c]pyridin-2-yl]-2-(oxolan-3-yl)acetamide]", "values": [{"measurement": "EC50", "result": "< 1000", "unit": "nM"}]}
